pIC50: −log10 of the molar value.
Experiments:
[1] = target: Interferon-induced, double-stranded RNA-activated protein kinase (Homo sapiens, UniProt P19525); experiment: Inhibition of PKR (unknown origin) assessed as EIF2AK2 phosphorylation
[2] = target: T1, Eukaryotic translation initiation factor 2-alpha kinase 3 (Homo sapiens, UniProt Q9NZJ5); experiment: Inhibition of GST-tagged PERK cytoplasmic domain (536 to 1116) (unknown origin) assessed as biotinylated His6-tagged EIF2alpha phosphorylation preincubated for 30 mins followed by ATP and eIF2alpha addition measured after 1 hr by HTRF assay
T1 sequence (Q9NZJ5 whole entry): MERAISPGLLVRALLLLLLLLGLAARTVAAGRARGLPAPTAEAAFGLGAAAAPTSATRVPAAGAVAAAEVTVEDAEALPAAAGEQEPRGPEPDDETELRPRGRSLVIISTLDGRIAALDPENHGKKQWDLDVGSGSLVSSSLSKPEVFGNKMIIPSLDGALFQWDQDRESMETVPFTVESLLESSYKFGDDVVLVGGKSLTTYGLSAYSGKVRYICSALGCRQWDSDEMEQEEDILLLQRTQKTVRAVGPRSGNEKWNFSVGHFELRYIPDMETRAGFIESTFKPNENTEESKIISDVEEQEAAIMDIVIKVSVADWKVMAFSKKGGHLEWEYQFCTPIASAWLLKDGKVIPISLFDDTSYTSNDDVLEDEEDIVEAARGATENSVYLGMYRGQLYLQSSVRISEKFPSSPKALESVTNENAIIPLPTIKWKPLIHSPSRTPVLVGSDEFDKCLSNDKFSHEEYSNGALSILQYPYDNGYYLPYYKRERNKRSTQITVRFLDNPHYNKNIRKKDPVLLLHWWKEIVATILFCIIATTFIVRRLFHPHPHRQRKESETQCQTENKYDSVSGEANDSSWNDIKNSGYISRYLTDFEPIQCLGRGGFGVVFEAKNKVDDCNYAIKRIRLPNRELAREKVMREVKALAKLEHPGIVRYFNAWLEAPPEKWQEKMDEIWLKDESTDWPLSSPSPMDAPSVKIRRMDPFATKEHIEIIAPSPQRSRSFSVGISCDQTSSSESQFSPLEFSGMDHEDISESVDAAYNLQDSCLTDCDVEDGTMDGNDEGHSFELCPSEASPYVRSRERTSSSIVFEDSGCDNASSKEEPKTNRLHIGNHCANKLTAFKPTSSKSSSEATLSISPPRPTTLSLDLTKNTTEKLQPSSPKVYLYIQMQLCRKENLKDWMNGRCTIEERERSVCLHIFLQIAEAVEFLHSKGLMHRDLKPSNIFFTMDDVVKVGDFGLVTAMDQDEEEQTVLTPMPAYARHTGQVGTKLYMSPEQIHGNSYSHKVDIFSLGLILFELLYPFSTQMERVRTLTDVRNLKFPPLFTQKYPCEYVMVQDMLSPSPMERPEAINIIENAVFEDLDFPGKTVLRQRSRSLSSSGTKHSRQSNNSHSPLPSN

Cytochrome P450 2D6 = Cytochrome P450 2D6 (Homo sapiens, UniProt P10635); experiment: Inhibition of CYP2D6 in human liver microsomes using bufuralol as substrate after 5 to 60 mins by LC-MS/MS analysis; assay type: ADME, Microsome
eIF-2-alpha kinase GCN2 = eIF-2-alpha kinase GCN2 (Homo sapiens, UniProt Q9P2K8); experiment: Inhibition of GCN2 (unknown origin) assessed as EIF2AK4 phosphorylation
Cytochrome P450 3A4 [3] = target: T2, Cytochrome P450 3A4 (Homo sapiens, UniProt P08684); experiment: Inhibition of CYP3A4 in human liver microsomes using midazolam as substrate after 5 to 60 mins by LC-MS/MS analysis; assay type: ADME, Microsome
Cytochrome P450 1A2 = target: T3, Cytochrome P450 1A2 (Homo sapiens, UniProt P05177); experiment: Inhibition of CYP1A2 in human liver microsomes using phenacetin as substrate after 5 to 60 mins by LC-MS/MS analysis; assay type: ADME, Microsome
T3 sequence (P05177 whole entry): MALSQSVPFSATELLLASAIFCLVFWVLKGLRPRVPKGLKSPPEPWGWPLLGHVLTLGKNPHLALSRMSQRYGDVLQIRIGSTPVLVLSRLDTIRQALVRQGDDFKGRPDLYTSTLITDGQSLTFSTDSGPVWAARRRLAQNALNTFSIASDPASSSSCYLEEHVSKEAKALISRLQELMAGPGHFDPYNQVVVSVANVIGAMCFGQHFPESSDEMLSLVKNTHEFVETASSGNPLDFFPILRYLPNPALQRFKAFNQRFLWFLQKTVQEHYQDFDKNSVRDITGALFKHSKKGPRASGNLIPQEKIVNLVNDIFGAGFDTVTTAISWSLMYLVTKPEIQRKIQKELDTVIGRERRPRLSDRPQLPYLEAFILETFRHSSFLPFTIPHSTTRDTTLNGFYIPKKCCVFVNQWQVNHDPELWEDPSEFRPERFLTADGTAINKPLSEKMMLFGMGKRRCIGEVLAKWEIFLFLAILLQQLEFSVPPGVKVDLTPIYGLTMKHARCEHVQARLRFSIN

[4] = target: T1, Eukaryotic translation initiation factor 2-alpha kinase 3; experiment: Inhibition of thapsigargin-induced autophosphorylation of PERK in human A549 cells preincubated for 1 hr followed by thapsigargin-induction measured after 1 hr by Western blotting analysis; assay type: cell-based
Cytochrome P450 2C19 = Cytochrome P450 2C19 (Homo sapiens, UniProt P33261); experiment: Inhibition of CYP2C19 in human liver microsomes using mephenytoin as substrate after 5 to 60 mins by LC-MS/MS analysis; assay type: ADME, Microsome
Cytochrome P450 2C9 = Cytochrome P450 2C9 (Homo sapiens, UniProt P11712); experiment: Inhibition of CYP2C9 in human liver microsomes using diclofenac as substrate after 5 to 60 mins by LC-MS/MS analysis; assay type: ADME, Microsome
[5] = Blood clearance in Sprague-Dawley rat at 2.2 mg/kg, iv by LC-MS/MS analysis; assay type: ADME, organism-based; parameters: dose 2.2 mg/kg, route intravenous; conditions: whole blood
Cytochrome P450 2C8 = target: T4, Cytochrome P450 2C8 (Homo sapiens, UniProt P10632); experiment: Inhibition of CYP2C8 in human liver microsomes using paclitaxel as substrate after 5 to 60 mins by LC-MS/MS analysis; assay type: ADME, Microsome
T4 sequence (P10632 whole entry): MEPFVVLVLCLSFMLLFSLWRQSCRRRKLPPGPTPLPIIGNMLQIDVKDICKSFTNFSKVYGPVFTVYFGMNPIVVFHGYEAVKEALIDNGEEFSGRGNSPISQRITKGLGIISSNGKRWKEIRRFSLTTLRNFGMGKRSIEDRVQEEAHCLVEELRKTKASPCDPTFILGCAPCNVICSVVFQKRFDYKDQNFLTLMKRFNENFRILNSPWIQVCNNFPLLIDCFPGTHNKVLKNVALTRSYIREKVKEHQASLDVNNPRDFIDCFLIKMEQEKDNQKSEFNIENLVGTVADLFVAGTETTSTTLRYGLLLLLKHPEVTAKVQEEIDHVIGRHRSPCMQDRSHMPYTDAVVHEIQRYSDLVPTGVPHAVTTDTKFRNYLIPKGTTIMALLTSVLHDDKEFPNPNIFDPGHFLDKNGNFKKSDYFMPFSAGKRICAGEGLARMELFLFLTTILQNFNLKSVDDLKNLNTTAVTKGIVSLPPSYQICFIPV

[6] = target: Eukaryotic translation initiation factor 2-alpha kinase 1 (Homo sapiens, UniProt Q9BQI3); experiment: Inhibition of HRI (unknown origin) assessed as EIF2AK1 phosphorylation
Cytochrome P450 3A4 [7] = target: T2, Cytochrome P450 3A4; experiment: Inhibition of CYP3A4 in human liver microsomes using nifedipine as substrate after 5 to 60 mins by LC-MS/MS analysis; assay type: ADME, Microsome

T2 sequence (P08684 whole entry): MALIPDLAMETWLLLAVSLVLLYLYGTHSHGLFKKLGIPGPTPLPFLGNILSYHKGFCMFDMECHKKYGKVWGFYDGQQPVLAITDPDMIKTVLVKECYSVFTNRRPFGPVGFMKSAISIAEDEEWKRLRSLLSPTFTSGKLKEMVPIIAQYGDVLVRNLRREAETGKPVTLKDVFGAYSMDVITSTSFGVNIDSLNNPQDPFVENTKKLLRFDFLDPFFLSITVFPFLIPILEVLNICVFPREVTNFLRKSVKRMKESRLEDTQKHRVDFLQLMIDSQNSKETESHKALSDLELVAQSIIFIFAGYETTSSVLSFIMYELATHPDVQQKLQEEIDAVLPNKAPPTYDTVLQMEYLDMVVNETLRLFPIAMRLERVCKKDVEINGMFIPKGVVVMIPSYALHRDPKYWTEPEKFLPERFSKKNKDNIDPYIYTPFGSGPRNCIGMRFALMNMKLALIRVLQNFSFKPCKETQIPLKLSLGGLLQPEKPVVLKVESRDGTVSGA
Chain of Cytochrome P450 2D6 (P10635 whole entry): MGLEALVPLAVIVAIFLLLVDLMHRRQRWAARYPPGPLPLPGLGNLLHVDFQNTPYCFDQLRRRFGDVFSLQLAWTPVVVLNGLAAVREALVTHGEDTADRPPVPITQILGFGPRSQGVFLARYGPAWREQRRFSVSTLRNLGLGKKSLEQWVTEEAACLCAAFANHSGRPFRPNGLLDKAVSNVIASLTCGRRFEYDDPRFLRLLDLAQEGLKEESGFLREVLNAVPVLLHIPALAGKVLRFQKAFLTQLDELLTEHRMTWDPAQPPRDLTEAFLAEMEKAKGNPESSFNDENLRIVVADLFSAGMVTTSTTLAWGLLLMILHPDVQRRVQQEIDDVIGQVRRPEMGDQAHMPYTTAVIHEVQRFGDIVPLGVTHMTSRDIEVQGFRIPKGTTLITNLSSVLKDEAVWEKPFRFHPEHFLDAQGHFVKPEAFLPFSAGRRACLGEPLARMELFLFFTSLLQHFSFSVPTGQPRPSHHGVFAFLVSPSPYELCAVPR
Chain of Cytochrome P450 2C9 (P11712 whole entry): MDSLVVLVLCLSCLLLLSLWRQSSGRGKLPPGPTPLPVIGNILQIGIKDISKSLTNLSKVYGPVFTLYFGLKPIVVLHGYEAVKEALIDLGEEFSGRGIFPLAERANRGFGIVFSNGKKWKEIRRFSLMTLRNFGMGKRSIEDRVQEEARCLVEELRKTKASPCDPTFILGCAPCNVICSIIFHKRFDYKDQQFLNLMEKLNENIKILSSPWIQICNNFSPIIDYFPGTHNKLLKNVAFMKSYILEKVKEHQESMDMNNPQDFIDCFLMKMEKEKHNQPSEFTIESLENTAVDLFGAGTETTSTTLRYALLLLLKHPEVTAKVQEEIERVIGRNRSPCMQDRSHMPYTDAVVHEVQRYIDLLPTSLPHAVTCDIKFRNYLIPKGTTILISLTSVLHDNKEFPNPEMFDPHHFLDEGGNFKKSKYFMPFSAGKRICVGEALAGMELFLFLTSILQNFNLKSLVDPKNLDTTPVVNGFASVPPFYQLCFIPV
Chain of Eukaryotic translation initiation factor 2-alpha kinase 1 (Q9BQI3 whole entry): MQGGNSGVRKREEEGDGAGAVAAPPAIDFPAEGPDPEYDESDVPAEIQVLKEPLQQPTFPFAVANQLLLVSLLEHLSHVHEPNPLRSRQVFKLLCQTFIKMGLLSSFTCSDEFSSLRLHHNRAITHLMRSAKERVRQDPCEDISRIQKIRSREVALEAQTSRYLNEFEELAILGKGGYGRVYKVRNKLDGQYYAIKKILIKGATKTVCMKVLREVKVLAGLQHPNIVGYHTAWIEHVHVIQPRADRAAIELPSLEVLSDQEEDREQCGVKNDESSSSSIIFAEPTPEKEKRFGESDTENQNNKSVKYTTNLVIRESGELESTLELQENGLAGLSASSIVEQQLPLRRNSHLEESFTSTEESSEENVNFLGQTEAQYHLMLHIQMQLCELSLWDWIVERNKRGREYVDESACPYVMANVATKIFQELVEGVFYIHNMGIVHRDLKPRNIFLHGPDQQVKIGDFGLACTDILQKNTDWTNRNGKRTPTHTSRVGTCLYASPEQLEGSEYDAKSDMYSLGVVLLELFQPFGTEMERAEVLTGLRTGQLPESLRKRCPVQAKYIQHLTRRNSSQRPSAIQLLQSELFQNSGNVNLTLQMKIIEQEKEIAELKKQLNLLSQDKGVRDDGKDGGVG
Chain of Interferon-induced, double-stranded RNA-activated protein kinase (P19525 whole entry, the tested form may be a part): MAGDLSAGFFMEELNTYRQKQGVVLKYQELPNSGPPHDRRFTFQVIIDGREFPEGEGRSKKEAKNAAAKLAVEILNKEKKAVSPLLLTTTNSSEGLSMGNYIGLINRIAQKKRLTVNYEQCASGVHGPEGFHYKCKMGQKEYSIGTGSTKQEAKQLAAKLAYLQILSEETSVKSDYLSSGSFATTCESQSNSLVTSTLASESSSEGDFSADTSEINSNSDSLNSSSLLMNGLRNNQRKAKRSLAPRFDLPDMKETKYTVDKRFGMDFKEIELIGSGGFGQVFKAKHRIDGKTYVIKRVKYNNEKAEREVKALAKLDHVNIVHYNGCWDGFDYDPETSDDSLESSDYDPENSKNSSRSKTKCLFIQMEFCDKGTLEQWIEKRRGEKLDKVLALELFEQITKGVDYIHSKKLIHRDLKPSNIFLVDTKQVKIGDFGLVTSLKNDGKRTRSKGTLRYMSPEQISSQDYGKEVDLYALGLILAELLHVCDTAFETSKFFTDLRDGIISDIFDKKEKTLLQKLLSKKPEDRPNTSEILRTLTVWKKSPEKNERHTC
Chain of Cytochrome P450 2C19 (P33261 whole entry): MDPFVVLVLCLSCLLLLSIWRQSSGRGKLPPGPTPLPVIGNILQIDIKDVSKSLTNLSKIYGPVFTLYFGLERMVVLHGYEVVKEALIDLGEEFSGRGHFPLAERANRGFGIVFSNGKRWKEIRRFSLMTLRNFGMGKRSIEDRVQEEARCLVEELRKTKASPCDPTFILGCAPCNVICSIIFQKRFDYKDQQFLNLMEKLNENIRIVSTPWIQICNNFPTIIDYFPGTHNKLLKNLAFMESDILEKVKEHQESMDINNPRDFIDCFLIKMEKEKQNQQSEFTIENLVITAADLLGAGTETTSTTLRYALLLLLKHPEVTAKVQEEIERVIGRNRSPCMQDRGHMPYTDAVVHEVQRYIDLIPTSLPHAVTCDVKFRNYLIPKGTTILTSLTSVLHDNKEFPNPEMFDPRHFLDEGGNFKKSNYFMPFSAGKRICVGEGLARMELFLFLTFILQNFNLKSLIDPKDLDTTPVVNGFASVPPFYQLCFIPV
Chain of eIF-2-alpha kinase GCN2 (Q9P2K8 whole entry): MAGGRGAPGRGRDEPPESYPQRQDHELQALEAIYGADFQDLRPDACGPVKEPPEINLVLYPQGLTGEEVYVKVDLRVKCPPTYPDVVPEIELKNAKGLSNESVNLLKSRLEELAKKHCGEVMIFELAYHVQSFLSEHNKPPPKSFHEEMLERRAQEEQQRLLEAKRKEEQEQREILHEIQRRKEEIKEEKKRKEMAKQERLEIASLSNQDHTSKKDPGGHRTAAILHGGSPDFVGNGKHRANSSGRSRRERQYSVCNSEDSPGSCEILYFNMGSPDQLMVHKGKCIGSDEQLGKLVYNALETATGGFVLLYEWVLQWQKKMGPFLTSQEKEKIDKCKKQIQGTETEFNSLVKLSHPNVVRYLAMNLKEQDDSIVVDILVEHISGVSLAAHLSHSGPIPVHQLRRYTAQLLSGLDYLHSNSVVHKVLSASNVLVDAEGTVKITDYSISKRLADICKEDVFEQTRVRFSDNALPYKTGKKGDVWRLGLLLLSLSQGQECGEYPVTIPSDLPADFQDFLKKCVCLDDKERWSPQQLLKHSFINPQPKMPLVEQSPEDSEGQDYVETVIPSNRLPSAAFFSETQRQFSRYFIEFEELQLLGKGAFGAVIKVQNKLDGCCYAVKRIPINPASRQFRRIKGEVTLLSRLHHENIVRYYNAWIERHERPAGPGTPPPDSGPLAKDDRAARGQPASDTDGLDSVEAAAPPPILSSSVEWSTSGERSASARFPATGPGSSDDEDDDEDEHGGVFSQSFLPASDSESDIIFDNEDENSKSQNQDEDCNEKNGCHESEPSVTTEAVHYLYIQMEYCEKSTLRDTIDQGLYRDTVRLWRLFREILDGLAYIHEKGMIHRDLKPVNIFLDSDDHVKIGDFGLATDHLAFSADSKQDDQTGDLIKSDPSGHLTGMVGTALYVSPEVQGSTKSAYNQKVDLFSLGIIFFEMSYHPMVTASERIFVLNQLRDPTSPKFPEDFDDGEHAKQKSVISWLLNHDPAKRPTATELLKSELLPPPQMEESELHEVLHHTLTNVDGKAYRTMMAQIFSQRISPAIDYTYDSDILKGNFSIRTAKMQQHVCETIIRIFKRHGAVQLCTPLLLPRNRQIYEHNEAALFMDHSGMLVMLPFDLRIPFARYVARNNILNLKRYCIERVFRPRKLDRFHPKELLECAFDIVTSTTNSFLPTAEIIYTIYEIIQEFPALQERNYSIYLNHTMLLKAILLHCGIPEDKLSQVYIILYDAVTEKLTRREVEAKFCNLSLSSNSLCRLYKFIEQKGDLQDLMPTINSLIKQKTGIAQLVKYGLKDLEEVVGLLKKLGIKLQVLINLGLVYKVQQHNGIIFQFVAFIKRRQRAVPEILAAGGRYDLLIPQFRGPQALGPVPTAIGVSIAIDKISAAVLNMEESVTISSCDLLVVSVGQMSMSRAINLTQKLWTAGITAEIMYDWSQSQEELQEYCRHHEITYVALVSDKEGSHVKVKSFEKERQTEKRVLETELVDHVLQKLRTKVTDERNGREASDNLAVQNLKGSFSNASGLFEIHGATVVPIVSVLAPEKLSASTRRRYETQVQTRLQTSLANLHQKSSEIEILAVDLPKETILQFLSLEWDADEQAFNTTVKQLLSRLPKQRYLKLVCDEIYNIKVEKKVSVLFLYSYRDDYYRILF

Row | Compound | pIC50 [1] | pIC50 [2] | pIC50 (Cytochrome P450 2D6) | pIC50 (eIF-2-alpha kinase GCN2) | pIC50 (Cytochrome P450 3A4 [3]) | pIC50 (Cytochrome P450 1A2) | pIC50 [4] | pIC50 (Cytochrome P450 2C19) | pIC50 (Cytochrome P450 2C9) | clearance [5] [mL/min/kg] | pIC50 (Cytochrome P450 2C8) | pIC50 [6] | pIC50 (Cytochrome P450 3A4 [7])
1 | Cc1ccnn1CC(=O)N1CCc2cc(-c3cn(C)c4ncnc(N)c34)ccc21 |  | 7.78 |  |  |  |  |  |  |  |  |  |  | 
2 | Cn1cc(-c2ccc3c(c2)CCN3C(=O)Cc2ccccn2)c2c(N)ncnc21 |  | 7.72 |  |  |  |  |  |  |  |  |  |  | 
3 | Cn1cc(-c2ccc3c(c2)CCN3C(=O)Cc2ccncc2)c2c(N)ncnc21 |  | 7.20 |  |  |  |  |  |  |  |  |  |  | 
4 | Cc1cc(C)n(CC(=O)N2CCc3c2ccc(-c2cn(C)c4ncnc(N)c24)c3F)n1 | 7.00 | 8.57 | < 4.60 |  | < 4.60 | < 4.60 | 7.52 | < 4.60 | < 4.60 | 1.9 | < 4.60 | 7.21 | 4.69

Now those with a higher pIC50 [2], led by results:

Row | pIC50 [1] | pIC50 [2] | pIC50 (Cytochrome P450 2D6) | pIC50 (eIF-2-alpha kinase GCN2) | pIC50 (Cytochrome P450 3A4 [3]) | pIC50 (Cytochrome P450 1A2) | pIC50 [4] | pIC50 (Cytochrome P450 2C19) | pIC50 (Cytochrome P450 2C9) | clearance [5] [mL/min/kg] | pIC50 (Cytochrome P450 2C8) | pIC50 [6] | pIC50 (Cytochrome P450 3A4 [7]) | Compound
5 |  | 8.60 |  |  |  |  | 7.00 |  |  | 10.5 |  |  |  | Cc1cccc(CC(=O)N2CCc3cc(-c4cn(C)c5ncnc(N)c45)ccc32)n1
6 | 6.44 | 9.30 | 4.63 | 6.11 | 5.04 | < 4.60 | > 7.52 | < 4.60 | 4.72 | 8.9 | 5.23 | 7.43 | 5.13 | Cn1cc(-c2ccc3c(c2F)CCN3C(=O)Cc2cccc(C(F)(F)F)n2)c2c(N)ncnc21
